Assay results from patent publication US9751874B2, “Hydroxy containing FXR (NR1H4) modulating compounds” (Gilead Sciences, Inc., priority 2014, dated 2017).
Structures can show the parent of a compound that is named as a salt.

Columns and labels:
[1] = target: T1, FXR ligand binding domain (Homo sapiens, UniProt Q96RI1); test: Mammalian One Hybrid (M1H) assay, Gal4 promoter driven transactivation in HEK293 cells; assay type: cell-based; settings: Gal4-FXR-LBD luciferase reporter, 16 h
T1 construct: expressed in transfected cells; host or cells: HEK293 cells, transiently transfected with pCMV-BD-FXR-LBD, pFR-Luc and pRL-CMV
T1 sequence (Q96RI1 187-472 isoform Q96RI1-2): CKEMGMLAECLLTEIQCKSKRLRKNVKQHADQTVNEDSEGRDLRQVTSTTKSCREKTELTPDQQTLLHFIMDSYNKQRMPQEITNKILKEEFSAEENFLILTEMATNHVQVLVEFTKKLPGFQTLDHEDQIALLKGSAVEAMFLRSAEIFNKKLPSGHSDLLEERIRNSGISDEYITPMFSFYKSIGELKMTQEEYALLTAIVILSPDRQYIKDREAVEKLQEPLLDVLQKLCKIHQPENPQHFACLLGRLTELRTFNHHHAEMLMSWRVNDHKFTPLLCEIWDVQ
Outline: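 HEK293 cells were transiently co-transfected with Gal4-DBD fused to the human FXR LBD (aa 187-472, NM_005123), a 5×GAL4-site firefly luciferase reporter and CMV-Renilla control. Compounds were added 2-4 h post-transfection (vehicle ≤0.1%) in charcoal/dextran-stripped FBS medium for 16 h. Firefly and Renilla luciferase were read sequentially, in triplicate.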

[2] = target: T2, human FXR alpha ligand binding domain (Homo sapiens, UniProt Q96RI1); test: FRET activity assay (ligand mediated cofactor peptide interaction, LANCE); assay type: biochemical; settings: GST-FXR-LBD / biotinylated SRC-1 peptide (676-700), read-out: F EC50
T2 construct: made in house; host or cells: E. coli BL21(DE3), vector pDEST15
T2 sequence (Q96RI1 187-472 isoform Q96RI1-2): T1 sequence (Q96RI1 187-472 isoform Q96RI1-2)
Outline: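 GST-tagged FXR LBD (aa 187–472, E. coli-expressed) at 20–60 ng/well with 200–600 nM biotinylated SRC-1 peptide (676–700), streptavidin-APC and Eu anti-GST in Tris pH 7.5 buffer, 1% DMSO, equilibrated 1 h dark at room temperature. TR-FRET read as 665/615 nm ratio; agonists raise signal above basal.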

| Compound | EC50 [1] [nM] | EC50 [2] [nM] |
| --- | --- | --- |
| O=C(NCCS(=O)(=O)O)c1cc(F)c2nc([C@]3(O)[C@@H]4CC[C@H]3C[C@H](OCc3c(-c5c(Cl)cccc5Cl)noc3C3CC3)C4)sc2c1 [Example 39, 2-(2-((1R,3s,5S,8r)-3-((5-Cyclopropyl-3-(2,6-dichlorophenyl)isoxazol-4-yl)methoxy)-8-hydroxybicyclo[3.2.1]octan-8-yl)-4-fluorobenzo[d]thiazole-6-carboxamido)ethanesulfonic acid, ammonia salt] | 760 | 3.2 |
| O[C@@]1(c2nc3ccc(CN4CCOCC4)cc3s2)[C@@H]2CC[C@H]1C[C@H](OCc1c(-c3c(Cl)cccc3Cl)noc1C1CC1)C2 [Example 43, (1R,3s,5S,8r)-3-((5-Cyclopropyl-3-(2,6-dichlorophenyl)isoxazol-4-yl)methoxy)-8-(6-(morpholinomethyl)benzo[d]thiazol-2-yl)bicyclo[3.2.1]octan-8-ol] | 15 | 15 |
| O=C(O)Cc1nc([C@]2(O)[C@@H]3CC[C@H]2C[C@H](OCc2c(-c4c(Cl)cccc4Cl)noc2C2CC2)C3)oc1C(F)(F)F [Example 45, 2-(2-((1R,3s,5S,8r)-3-((5-Cyclopropyl-3-(2,6-dichlorophenyl)isoxazol-4-yl)methoxy)-8-hydroxybicyclo[3.2.1]octan-8-yl)-5-(trifluoromethyl)oxazol-4-yl)acetic acid] | 7.9 | 6 |
| O=C(O)Cc1csc([C@]2(O)[C@@H]3CC[C@H]2C[C@H](OCc2c(-c4c(Cl)cccc4Cl)noc2C2CC2)C3)n1 [Example 46, 2-(2-((1R,3s,5S,8r)-3-((5-Cyclopropyl-3-(2,6-dichlorophenyl)isoxazol-4-yl)methoxy)-8-hydroxybicyclo[3.2.1]octan-8-yl)thiazol-4-yl)acetic acid] | 260 | 42 |
| O=C(O)c1cc(F)c2nc([C@]3(O)[C@@H]4CC[C@H]3C[C@H](OCc3c(C5CC5)cnn3-c3c(Cl)cccc3Cl)C4)sc2c1 [Example 47, 2-((1R,3s,5S,8r)-3-((4-Cyclopropyl-1-(2,6-dichlorophenyl)-1H-pyrazol-5-yl)methoxy)-8-hydroxybicyclo[3.2.1]octan-8-yl)-4-fluorobenzo[d]thiazole-6-carboxylic acid] | 7.9 | 1.1 |
